Test results as given in ChEMBL document CHEMBL1201862, “PubChem BioAssay data set” (2004).
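Grown in 96-well plates, cells were treated for 48 hours with each compound at five concentrations. Insufficient inhibition: endpoint recorded as highest concentration tested. Abbreviation: GI50, concentration required for 50% inhibition of growth.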 Calls of active or inactive are those of the source. No stated cut-off is given here; in the data, active = GI50 up to about 1.1 µM and inactive = higher.

Legend:
Experiment in all cases: DTP human tumour cell line panel, 48 h
MCF7 = test system: MCF7
SR = test system: SR
SK-MEL-2 = test system: SK-MEL-2
NCI-H522 = test system: NCI-H522
SF-539 = test system: SF-539
SF-295 = test system: SF-295
HCT-116 = test system: HCT-116
HOP-92 = test system: HOP-92
SW-620 = test system: SW-620
MDA-N = test system: MDA-N
HL-60 = test system: HL-60
SNB-19 = test system: SNB-19
MDA-MB-231 = test system: MDA-MB-231
DU-145 = test system: DU-145
RPMI-8226 = test system: RPMI-8226
CAKI-1 = test system: CAKI-1
OVCAR-3 = test system: OVCAR-3
LOX IMVI = test system: LOX IMVI
HCC 2998 = test system: HCC 2998
MOLT-4 = test system: MOLT-4

CC(C)(N)C(=O)N[C@@H]1C(=O)N2[C@@H]1SC(C)(C)[C@@H]2C(=O)O
GI50 (MCF7): > 100 µM (inactive)
GI50 (SR): > 100 µM (inactive)
GI50 (SK-MEL-2): > 100 µM (inactive)
GI50 (NCI-H522): > 100 µM (inactive)
GI50 (SF-539): > 100 µM (inactive)
GI50 (SF-295): > 100 µM (inactive)
GI50 (HCT-116): > 100 µM (inactive)
GI50 (HOP-92): > 100 µM (inactive)
GI50 (SW-620): > 100 µM (inactive)
GI50 (MDA-N): > 100 µM (inactive)
GI50 (HL-60): < 0.01 µM (active)
GI50 (SNB-19): > 100 µM (inactive)
GI50 (MDA-MB-231): > 100 µM (inactive)
GI50 (DU-145): > 100 µM (inactive)
GI50 (RPMI-8226): > 100 µM (inactive)
GI50 (CAKI-1): > 100 µM (inactive)
GI50 (OVCAR-3): > 100 µM (inactive)
GI50 (LOX IMVI): > 100 µM (inactive)

COC(=O)[C@H](CCSC)NC(=O)c1ccc(CNC(=O)/C(C)=C/c2ccccc2)cc1
GI50 (MCF7): 80.2 µM (inactive)
GI50 (SR): 92.7 µM (inactive)
GI50 (SK-MEL-2): 20.7 µM (inactive)
GI50 (HCC 2998): 9.48 µM (inactive)
GI50 (NCI-H522): 10.8 µM (inactive)
GI50 (SF-539): 26.5 µM (inactive)
GI50 (MOLT-4): > 100 µM (inactive)
GI50 (SF-295): 48.5 µM (inactive)
GI50 (HCT-116): 50.9 µM (inactive)
GI50 (HOP-92): 25.8 µM (inactive)
GI50 (SW-620): 47 µM (inactive)
GI50 (MDA-N): 55.6 µM (inactive)
GI50 (SNB-19): 24.7 µM (inactive)
GI50 (MDA-MB-231): 46.8 µM (inactive)
GI50 (DU-145): 37.9 µM (inactive)
GI50 (RPMI-8226): > 100 µM (inactive)
GI50 (CAKI-1): 30.6 µM (inactive)
GI50 (OVCAR-3): 60.8 µM (inactive)
GI50 (LOX IMVI): 33.1 µM (inactive)

COc1c2ccoc2nc2c(OC)c(OCC(O)C(C)(C)O)ccc12 (centres undefined) [EVOXINE]
GI50 (MCF7): > 100 µM (inactive)
GI50 (SK-MEL-2): > 100 µM (inactive)
GI50 (HCC 2998): > 100 µM (inactive)
GI50 (NCI-H522): > 100 µM (inactive)
GI50 (SF-539): > 100 µM (inactive)
GI50 (MOLT-4): > 100 µM (inactive)
GI50 (SF-295): > 100 µM (inactive)
GI50 (HCT-116): > 100 µM (inactive)
GI50 (HOP-92): > 100 µM (inactive)
GI50 (SW-620): > 100 µM (inactive)
GI50 (MDA-N): > 100 µM (inactive)
GI50 (HL-60): > 100 µM (inactive)
GI50 (SNB-19): > 100 µM (inactive)
GI50 (MDA-MB-231): 75.3 µM (inactive)
GI50 (DU-145): > 100 µM (inactive)
GI50 (RPMI-8226): > 100 µM (inactive)
GI50 (CAKI-1): > 100 µM (inactive)
GI50 (OVCAR-3): > 100 µM (inactive)
GI50 (LOX IMVI): > 100 µM (inactive)

ClC(Cl)(Cl)C1CCOC1n1nc2ccccc2n1 (centres undefined)
GI50 (MCF7): > 100 µM (inactive)
GI50 (SR): > 100 µM (inactive)
GI50 (SK-MEL-2): > 100 µM (inactive)
GI50 (HCC 2998): > 100 µM (inactive)
GI50 (NCI-H522): > 100 µM (inactive)
GI50 (SF-539): > 100 µM (inactive)
GI50 (MOLT-4): > 100 µM (inactive)
GI50 (SF-295): > 100 µM (inactive)
GI50 (HCT-116): > 100 µM (inactive)
GI50 (MDA-N): > 100 µM (inactive)
GI50 (HL-60): 49.9 µM (inactive)
GI50 (MDA-MB-231): > 100 µM (inactive)
GI50 (DU-145): > 100 µM (inactive)
GI50 (CAKI-1): > 100 µM (inactive)
GI50 (OVCAR-3): > 100 µM (inactive)

COC(=O)c1cc2c3c(cc(NCCN)c2[nH]1)N(C(=O)c1cc2cc(OC)c(OC)c(OC)c2[nH]1)CC3CCl (centres undefined)
GI50 (MCF7): 0.014 µM (active)
GI50 (SR): 0.0153 µM (active)
GI50 (SK-MEL-2): 0.0628 µM (active)
GI50 (HCC 2998): 0.0982 µM (active)
GI50 (NCI-H522): < 0.01 µM (active)
GI50 (SF-539): 0.0392 µM (active)
GI50 (MOLT-4): 0.0251 µM (active)
GI50 (SF-295): 0.228 µM (active)
GI50 (HCT-116): 0.0198 µM (active)
GI50 (HOP-92): 0.0703 µM (active)
GI50 (SW-620): 0.0369 µM (active)
GI50 (MDA-N): 0.0811 µM (active)
GI50 (SNB-19): 0.0183 µM (active)
GI50 (MDA-MB-231): 0.0638 µM (active)
GI50 (DU-145): 0.0221 µM (active)
GI50 (RPMI-8226): 0.25 µM (active)
GI50 (CAKI-1): 0.144 µM (active)
GI50 (OVCAR-3): 0.0728 µM (active)
GI50 (LOX IMVI): 0.0186 µM (active)

Clc1ccc(CSCc2ccc(Cl)cc2Cl)c(Cl)c1
GI50 (MCF7): 27.7 µM (inactive)
GI50 (SK-MEL-2): 21.3 µM (inactive)
GI50 (HCC 2998): 26.3 µM (inactive)
GI50 (NCI-H522): 24.8 µM (inactive)
GI50 (SF-539): > 100 µM (inactive)
GI50 (MOLT-4): 19.4 µM (inactive)
GI50 (SF-295): 37.3 µM (inactive)
GI50 (HCT-116): 41.4 µM (inactive)
GI50 (HOP-92): 54.2 µM (inactive)
GI50 (SW-620): 42.8 µM (inactive)
GI50 (MDA-N): 38.8 µM (inactive)
GI50 (HL-60): 39.7 µM (inactive)
GI50 (SNB-19): > 100 µM (inactive)
GI50 (MDA-MB-231): > 100 µM (inactive)
GI50 (DU-145): 39.6 µM (inactive)
GI50 (RPMI-8226): 28.1 µM (inactive)
GI50 (CAKI-1): 86.1 µM (inactive)
GI50 (OVCAR-3): 88.3 µM (inactive)
GI50 (LOX IMVI): 36.1 µM (inactive)
